Data on 28 compounds can be found in patent US8236792B2, “Substituted pyrrolidine amides as modulators of the histamine H3 receptor” (Janssen Pharmaceutica NV, priority 2008, dated 2012).

Like-named read-outs stand apart in the source and are kept apart here.

The target in experiment [1] is T1, human H3 receptor (Homo sapiens, UniProt Q9Y5N1). Nature of the experiment: H3 Receptor Binding (Human) Method 2, [125I]-iodoproxyfan competitive radioligand binding. Also on record: expressed in transfected cells.
Description: SK-N-MC cells expressing the human H3 receptor were grown to confluence and tissue culture plates, washed with phosphate-buffered saline, and scraped into 50 mL tubes. After centrifugation, the supernatant was aspirated, and the pellets frozen and stored at −80° C. […] The homogenate was centrifuged at 25000×g for 25 min. […] Reactions were stopped by filtration through GF/B filter plates pre-soaked in 0.3% polyethylenimine and subsequently washed with Tris 50 mM, 5 mM EDTA buffer. Plates were dried for 1 h in a 55° C. oven. Scintillation fluid was added and the radioactivity was counted in a Packard TopCount. Non-specific binding to the H3 receptor was defined by radioactivity that was bound in the presence of 100 μM histamine.
(§1) Compounds were tested in their free base or hydrochloride salt forms.
In experiment [2] the target is T2, cloned human H3 receptors (Homo sapiens, UniProt Q9Y5N1).
T2 construct: expressed in transfected cells
Nature of the experiment: H3 Receptor Binding (Human) Method 1. Particulars: receptor stably expressed in SK-N-MC cells, free base forms, average of results.

Another experiment has as its target T3, cloned rat H3 receptors (Rattus norvegicus, UniProt Q9QYN8).
T3 construct: expressed in transfected cells
Description: H3 Receptor Binding (Rat).

Another experiment concerns the target T4, rat H3 receptor (Rattus norvegicus, UniProt Q9QYN8).
T4 construct: expressed in transfected cells; host or cells: SK-N-MC sublines with a reporter construct
Description: Cyclic AMP Accumulation (rat H3 reporter subline). It is filed as cell-based.

For experiment [3], the target named is T1, human H3 receptor. Nature of the experiment: Cyclic AMP Accumulation (human H3 reporter subline). Particulars: SK-N-MC subline with reporter construct and human H3 receptor, free base or trifluoroacetate salt, average. It is filed as cell-based. Details: expressed in transfected cells; host or cells: SK-N-MC sublines with a reporter construct.
Description: Sublines of SK-N-MC cells were created that expressed a reporter construct and either the human or rat H3 receptor. […] Compounds were tested in their free base or trifluoroacetate salt forms.
Setting [4] is: receptor stably expressed in SK-N-MC cells, free base or hydrochloride salt, average of results, read-out: Rat H3 Ki.
The mark [5] stands for this setting: SK-N-MC subline with reporter construct and rat H3 receptor, free base or trifluoroacetate salt, average, read-out: Rat pA2 (converted).
The mark [6] stands for this setting: SK-N-MC subline with reporter construct and rat H3 receptor, free base or trifluoroacetate salt, average.

T1 sequence (Q9Y5N1 whole entry): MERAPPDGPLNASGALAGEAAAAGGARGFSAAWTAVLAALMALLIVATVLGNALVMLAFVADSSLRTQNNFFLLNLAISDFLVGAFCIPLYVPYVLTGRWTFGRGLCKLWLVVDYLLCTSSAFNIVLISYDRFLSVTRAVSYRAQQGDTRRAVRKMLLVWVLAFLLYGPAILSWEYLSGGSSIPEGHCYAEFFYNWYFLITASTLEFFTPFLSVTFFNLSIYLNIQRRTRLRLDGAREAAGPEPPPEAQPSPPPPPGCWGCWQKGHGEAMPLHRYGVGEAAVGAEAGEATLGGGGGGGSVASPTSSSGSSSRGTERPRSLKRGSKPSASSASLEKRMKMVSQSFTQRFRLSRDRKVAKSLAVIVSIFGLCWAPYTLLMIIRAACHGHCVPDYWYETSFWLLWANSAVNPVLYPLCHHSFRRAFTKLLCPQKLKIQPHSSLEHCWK
T2 sequence (Q9Y5N1 whole entry): as above
T3 sequence (Q9QYN8 whole entry): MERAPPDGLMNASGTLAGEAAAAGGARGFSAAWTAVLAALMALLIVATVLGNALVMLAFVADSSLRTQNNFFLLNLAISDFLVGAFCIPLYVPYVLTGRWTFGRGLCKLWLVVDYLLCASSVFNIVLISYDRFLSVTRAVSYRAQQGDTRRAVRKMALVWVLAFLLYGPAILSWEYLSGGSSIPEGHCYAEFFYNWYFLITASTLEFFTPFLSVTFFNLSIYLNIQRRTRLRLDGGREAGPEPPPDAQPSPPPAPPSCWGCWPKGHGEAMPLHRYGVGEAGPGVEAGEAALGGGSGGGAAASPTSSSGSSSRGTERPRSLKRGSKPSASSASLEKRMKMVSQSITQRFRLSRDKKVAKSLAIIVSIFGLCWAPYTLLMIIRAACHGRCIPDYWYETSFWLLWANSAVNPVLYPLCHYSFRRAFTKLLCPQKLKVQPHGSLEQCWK
T4 sequence (Q9QYN8 whole entry): as above
Description for cloned rat H3 receptors: Compounds were tested for binding to cloned rat H3 receptors, stably expressed in SK-N-MC cells.
as §1

Take `CC(C)(C)OC(=O)N1C[C@@H](Oc2ccc(C#N)cc2)C[C@@H]1C(=O)N1CCCN(C2CCC2)CC1` [Example 16, (2R,4S)-4-(4-Cyano-phenoxy)-2-(4-cyclobutyl-[1,4]diazepane-1-carbonyl)-pyrrolidine-1-carboxylic acid tert-butyl ester]: the Ki came to 2 nM on human H3 receptor [1] (read-out: Human H3 Ki) and 3 nM in experiment [2].

In the case of `CC(C)(C)OC(=O)N1C[C@@H](Oc2cccc(F)c2)C[C@@H]1C(=O)N1CCCN(C2CCC2)CC1` [Example 17, (2R,4S)-2-(4-Cyclobutyl-[1,4]diazepane-1-carbonyl)-4-(3-fluoro-phenoxy)-pyrrolidine-1-carboxylic acid tert-butyl ester], the Ki (at human H3 receptor [1] (read-out: Human H3 Ki); in experiment [2]) was 3 nM in each case.

Turning to `CC(C)(C)OC(=O)N1C[C@@H](Oc2ccccc2)C[C@@H]1C(=O)N1CCCN(C2CCC2)CC1` [Example 19, (2R,4S)-2-(4-Cyclobutyl-[1,4]diazepane-1-carbonyl)-4-phenoxy-pyrrolidine-1-carboxylic acid tert-butyl ester], the Ki came to 9 nM on human H3 receptor [1] (read-out: Human H3 Ki) and 5 nM in experiment [2].

Turning to `CC(C)(C)OC(=O)N1C[C@@H](Oc2cccc(Cl)c2)C[C@@H]1C(=O)N1CCCN(C2CCC2)CC1` [Example 20, (2R,4S)-4-(3-Chloro-phenoxy)-2-(4-cyclobutyl-[1,4]diazepane-1-carbonyl)-pyrrolidine-1-carboxylic acid tert-butyl ester], the inhibition constant (Ki) turned out to be 4 nM on human H3 receptor [1] (read-out: Human H3 Ki) and 12 nM in experiment [2].

In the case of `CC(C)(C)OC(=O)N1C[C@@H](Oc2ccc(Cl)cc2)C[C@@H]1C(=O)N1CCCN(C2CCC2)CC1` [Example 21, (2R,4S)-4-(4-Chloro-phenoxy)-2-(4-cyclobutyl-[1,4]diazepane-1-carbonyl)-pyrrolidine-1-carboxylic acid tert-butyl ester], the inhibition constant Ki worked out at 3 nM at human H3 receptor [1] (read-out: Human H3 Ki) and 12 nM in experiment [2].

As for `Cc1cccc(O[C@H]2C[C@H](C(=O)N3CCCN(C4CCC4)CC3)N(C(=O)OC(C)(C)C)C2)c1` [Example 27, (2R,4S)-2-(4-Cyclobutyl-[1,4]diazepane-1-carbonyl)-4-m-tolyloxy-pyrrolidine-1-carboxylic acid tert-butyl ester], the inhibition constant (Ki) at human H3 receptor [1] (read-out: Human H3 Ki) turned out to be 5 nM; at cloned rat H3 receptors (setting [4]), 232 nM.

As to `N#Cc1ccc(O[C@@H]2CN[C@@H](C(=O)N3CCCN(C4CCC4)CC3)C2)cc1` [Example 64, (3S,5R)-4-[5-(4-Cyclobutyl-[1,4]diazepane-1-carbonyl)-pyrrolidin-3-yloxy]-benzonitrile], at rat H3 receptor (setting [5]), the Kb was 12.9 nM. The compound also displayed a Ki on cloned rat H3 receptors of 466 nM.

For `O=C([C@H]1C[C@H](Oc2cccc(F)c2)CN1)N1CCCN(C2CCC2)CC1` [Example 65, (2R,4S)-4-(3-Fluoro-phenoxy)-2-(4-cyclobutyl-[1,4]diazepane-1-carbonyl)-pyrrolidine], the Kb on rat H3 receptor (setting [5]) was 7.41 nM. Besides, on cloned rat H3 receptors, the Ki came to 12 nM.

Consider `O=C([C@H]1C[C@H](Oc2ccccc2)CN1)N1CCCN(C2CCC2)CC1` [Example 67, (2R,4S)-4-Phenoxy-2-(4-cyclobutyl-[1,4]diazepane-1-carbonyl)-pyrrolidine], for which the inhibition constant (Ki) came out at 5 nM on human H3 receptor [1] and 502 nM on cloned rat H3 receptors (setting [4]). For the same compound, the Kb at rat H3 receptor (setting [5]) was 57.5 nM. The “Human pA2” value on human H3 receptor [3] was 8.09.

Take `O=C([C@H]1C[C@H](Oc2cccc(Cl)c2)CN1)N1CCCN(C2CCC2)CC1` [Example 68, (2R,4S)-4-(3-chloro-phenoxy)-2-(4-cyclobutyl-[1,4]diazepane-1-carbonyl)-pyrrolidine]: the “Rat pA2” value at rat H3 receptor (setting [6]) is recorded as 8.59.

Regarding `O=C([C@H]1C[C@H](Oc2ccc(Cl)cc2)CN1)N1CCCN(C2CCC2)CC1` [Example 69, (2R,4S)-4-(4-Chloro-phenoxy)-2-(4-cyclobutyl-[1,4]diazepane-1-carbonyl)-pyrrolidine], the “Rat pA2” value on rat H3 receptor (setting [6]) was determined as 8.30. The Ki on cloned rat H3 receptors (setting [4]) is 18 nM.

As to `CSc1ccc(O[C@@H]2CN[C@@H](C(=O)N3CCCN(C4CCC4)CC3)C2)cc1` [Example 71, (2R,4S)-4-(4-Methylsulfanyl-Phenoxy)-2-(4-cyclobutyl-[1,4]diazepane-1-carbonyl)-pyrrolidine], the Ki at human H3 receptor [1] stood at 3 nM; on cloned rat H3 receptors, 54 nM. In addition, the Kb on rat H3 receptor (setting [5]) was 10.7 nM; on human H3 receptor [3] (read-out: Human pA2 (converted)) it was 2.04 nM.

`O=C([C@H]1C[C@H](Oc2ccc(F)cc2)CN1)N1CCCN(C2CCCC2)CC1` [Example 82, (2R,4S)-2-(4-Cyclopentyl-[1,4]diazepane-1-carbonyl)-4-(4-fluoro-phenoxy)-pyrrolidine]: at rat H3 receptor (setting [6]), the “Rat pA2” value was determined as 8.21. For the same compound, at cloned rat H3 receptors (setting [4]), the Ki came to 18 nM.

`N#Cc1ccc(O[C@@H]2CN[C@@H](C(=O)N3CCCN(C4CCCC4)CC3)C2)cc1` [Example 83, (2R,4S)-4-(4-Cyano-phenoxy)-2-(4-cyclopentyl-[1,4]diazepane-1-carbonyl)-pyrrolidine]: at rat H3 receptor (setting [6]), the “Rat pA2” value turned out to be 8.51. The Ki at cloned rat H3 receptors was 16 nM.

For the compound `O=C([C@@H]1C[C@@H](Oc2cccc(Cl)c2)CN1)N1CCCN(C2CCC2)CC1` [Example 88, (2S,4R)-4-(3-Chloro-phenoxy)-2-(4-cyclobutyl-[1,4]diazepane-1-carbonyl)-pyrrolidine], the inhibition constant (Ki) on cloned rat H3 receptors (setting [4]) is 130 nM.

In the case of `N#Cc1ccc(O[C@H]2CN[C@H](C(=O)N3CCCN(C4CCC4)CC3)C2)cc1` [Example 94, (2S,4R)-4-(4-Cyano-phenoxy)-2-(4-cyclobutyl-[1,4]diazepane-1-carbonyl)-pyrrolidine], the Kb on rat H3 receptor (setting [5]) is 110 nM. Moreover, at cloned rat H3 receptors, the Ki was 150 nM.

Consider `O=C([C@H]1C[C@H](Oc2ccsc2)CN1)N1CCCN(C2CCC2)CC1` [Example 102, (2R,4S)-2-(4-Cyclobutyl-[1,4]diazepane-1-carbonyl)-4-(thiophen-3-yloxy)-pyrrolidine], for which the Ki at human H3 receptor [1] (read-out: Human H3 Ki) came to 5 nM. The Kb at rat H3 receptor (setting [5]) is 21.9 nM. The “Human pA2” value on human H3 receptor [3] came out at 8.65.

Compound `CN1C[C@@H](Oc2ccc(F)cc2)C[C@@H]1C(=O)N1CCCN(C2CCC2)CC1` [Example 110, (2R,4S)-1-Methyl-2-(4-cyclobutyl-[1,4]diazepane-1-carbonyl)-4-(4-fluoro-phenoxy)-pyrrolidine] showed a Kb at rat H3 receptor of 16.6 nM. Besides, the affinity on cloned rat H3 receptors corresponds to a Ki of 477 nM.

With `CC(=O)N1C[C@@H](Oc2ccc(F)cc2)C[C@@H]1C(=O)N1CCCN(C2CCC2)CC1` [Example 120, (2R,4S)-1-[2-(4-Cyclobutyl-[1,4]diazepane-1-carbonyl)-4-(4-fluoro-phenoxy)-pyrrolidin-1-yl]-ethanone], the Kb at rat H3 receptor (setting [5]) was 1.62 nM. The inhibitory constant (Ki) at cloned rat H3 receptors (setting [4]) was determined as 30 nM.

`CSc1ccc(O[C@H]2C[C@H](C(=O)N3CCCN(C4CCC4)CC3)N(C(C)=O)C2)cc1` [Example 121, (2R,4S)-1-[2-(4-Cyclobutyl-[1,4]diazepane-1-carbonyl)-4-(4-methylsulfanyl-phenoxy)-pyrrolidin-1-yl]-ethanone]: the Ki turned out to be 2 nM at human H3 receptor [1] (read-out: Human H3 Ki) and 15 nM on cloned rat H3 receptors (setting [4]).

As to `CC(=O)N1C[C@@H](Oc2ccc(Cl)c(C)c2)C[C@@H]1C(=O)N1CCCN(C2CCC2)CC1` [Example 122, (2R,4S)-1-[4-(4-Chloro-3-methyl-phenoxy)-2-(4-cyclobutyl-[1,4]diazepane-1-carbonyl)-pyrrolidin-1-yl]-ethanone], the results for the Ki on human H3 receptor [1] (read-out: Human H3 Ki) and on cloned rat H3 receptors (setting [4]) were 1 nM and 12 nM, respectively.

Regarding `CC(=O)N1C[C@@H](Oc2cccc(F)c2)C[C@@H]1C(=O)N1CCCN(C2CCC2)CC1` [Example 131, (2R,4S)-1-[2-(4-Cyclobutyl-[1,4]diazepane-1-carbonyl)-4-(3-fluoro-phenoxy)-pyrrolidin-1-yl]-ethanone], the figures for the inhibitory constant (Ki) on human H3 receptor [1] and at cloned rat H3 receptors were 2 nM and 17 nM, respectively. In addition, the “Rat pA2” value on rat H3 receptor (setting [6]) is on record as 8.22.

`CC(=O)N1C[C@@H](Oc2ccsc2)C[C@@H]1C(=O)N1CCCN(C2CCC2)CC1` [Example 134, (2R,4S)-1-[2-(4-Cyclobutyl-[1,4]diazepane-1-carbonyl)-4-(thiophen-3-yloxy)-pyrrolidin-1-yl]-ethanone]: the Ki on human H3 receptor [1] (read-out: Human H3 Ki) worked out at 3 nM. Further, the Kb on rat H3 receptor (setting [5]) is 8.71 nM. Further, the “Human pA2” value at human H3 receptor [3] was 9.28.

Take `CC(C)(C)OC(=O)N1C[C@H](OCc2ccc(F)cc2)C[C@@H]1C(=O)N1CCCN(C2CCC2)CC1` [Example 151, (2R,4R)-2-(4-Cyclobutyl-[1,4]diazepane-1-carbonyl)-4-(4-fluoro-benzyloxy)-pyrrolidine-1-carboxylic acid tert-butyl ester]: the Ki in experiment [2] worked out at 34 nM.

Turning to `O=C([C@H]1C[C@H](OCc2cccc(F)c2)CN1)N1CCCN(C2CCC2)CC1` [Example 152, (2R,4S)-2-(4-Cyclobutyl-[1,4]diazepane-1-carbonyl)-4-(3-fluoro-benzyloxy)-pyrrolidine], the values for the inhibitory constant (Ki) on human H3 receptor [1] (read-out: Human H3 Ki) and at cloned rat H3 receptors (setting [4]) were 4 nM and 8 nM, respectively.

Regarding `O=C([C@H]1C[C@H](OCc2ccc(F)cc2)CN1)N1CCCN(C2CCC2)CC1` [Example 153, (2R,4S)-2-(4-Cyclobutyl-[1,4]diazepane-1-carbonyl)-4-(4-fluoro-benzyloxy)-pyrrolidine], the values for the Ki on human H3 receptor [1] (read-out: Human H3 Ki) and at cloned rat H3 receptors (setting [4]) were 3 nM and 13 nM, respectively.

Regarding `O=C([C@H]1C[C@@H](OCc2cccc(F)c2)CN1)N1CCCN(C2CCC2)CC1` [Example 154, (2R,4R)-2-(4-Cyclobutyl-[1,4]diazepane-1-carbonyl)-4-(3-fluoro-benzyloxy)-pyrrolidine], in experiment [2], affinity was put at a Ki of 149 nM.

In experiment [2], `O=C([C@H]1C[C@@H](OCc2ccc(F)cc2)CN1)N1CCCN(C2CCC2)CC1` [Example 155, (2R,4R)-2-(4-Cyclobutyl-[1,4]diazepane-1-carbonyl)-4-(4-fluoro-benzyloxy)-pyrrolidine] returned a Ki of 160 nM.
